A short description of data set [1]: Elimination half life in rat at 1 mg/kg, iv. The format is ADME, organism-based. The conditions noted are these: in vivo, read-out: beta t1/2 (converted). Details: dose 1 mg/kg, route intravenous; call rule not given here.
Data set [2] can be described thus: Elimination half life in rat at 3 mg/kg, po. The conditions noted are these: in vivo, read-out: beta t1/2 (converted). The format is ADME, organism-based. More on the design: dose 3 mg/kg, route oral.
The nature of data set [3]: Oral bioavailability in rat at 10 mg/kg. The conditions noted are these: in vivo. Format: ADME, organism-based.
The target of data set [4] is Sodium-dependent serotonin transporter (Rattus norvegicus, UniProt P31652).
Sodium-dependent serotonin transporter, sequence (P31652 whole entry): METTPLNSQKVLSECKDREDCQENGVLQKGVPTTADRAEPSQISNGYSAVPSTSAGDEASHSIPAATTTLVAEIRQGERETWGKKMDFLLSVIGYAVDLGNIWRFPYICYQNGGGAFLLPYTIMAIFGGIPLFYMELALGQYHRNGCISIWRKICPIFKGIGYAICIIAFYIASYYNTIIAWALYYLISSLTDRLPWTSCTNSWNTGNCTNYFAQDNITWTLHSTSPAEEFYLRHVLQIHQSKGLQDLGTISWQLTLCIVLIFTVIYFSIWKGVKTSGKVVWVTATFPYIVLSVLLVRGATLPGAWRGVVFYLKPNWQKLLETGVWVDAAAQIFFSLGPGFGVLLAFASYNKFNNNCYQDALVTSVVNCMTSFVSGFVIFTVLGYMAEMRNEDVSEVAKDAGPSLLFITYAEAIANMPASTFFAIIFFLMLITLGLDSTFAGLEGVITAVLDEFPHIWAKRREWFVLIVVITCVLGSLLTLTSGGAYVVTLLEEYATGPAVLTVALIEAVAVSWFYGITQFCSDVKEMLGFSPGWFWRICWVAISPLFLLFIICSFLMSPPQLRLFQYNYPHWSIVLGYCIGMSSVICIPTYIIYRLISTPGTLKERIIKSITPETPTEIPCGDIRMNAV
Description: Displacement of [3H]paroxetine from 5HT transporter in rat cortical membrane
In data set [5] the test system is Rattus norvegicus. The data set is described as follows: Antidepressant activity in rat assessed as increase in extracellular 5HT level in dorsal lateral frontal cortex at 30 mg/kg, po after 3 hrs by microdialysis assay relative to basal level. Format: functional.
In data set [6] the test system is Rattus norvegicus. The data set is described as follows: Antidepressant activity in po dosed rat assessed as increase in extracellular 5HT level in dorsal lateral frontal cortex after 3 hrs by microdialysis assay. The format is functional, organism-based.
In data set [7] the target is T1, Adrenergic receptor alpha-1 (Rattus norvegicus, UniProt P15823+P23944+P43140).
T1 sequence (P15823 whole entry): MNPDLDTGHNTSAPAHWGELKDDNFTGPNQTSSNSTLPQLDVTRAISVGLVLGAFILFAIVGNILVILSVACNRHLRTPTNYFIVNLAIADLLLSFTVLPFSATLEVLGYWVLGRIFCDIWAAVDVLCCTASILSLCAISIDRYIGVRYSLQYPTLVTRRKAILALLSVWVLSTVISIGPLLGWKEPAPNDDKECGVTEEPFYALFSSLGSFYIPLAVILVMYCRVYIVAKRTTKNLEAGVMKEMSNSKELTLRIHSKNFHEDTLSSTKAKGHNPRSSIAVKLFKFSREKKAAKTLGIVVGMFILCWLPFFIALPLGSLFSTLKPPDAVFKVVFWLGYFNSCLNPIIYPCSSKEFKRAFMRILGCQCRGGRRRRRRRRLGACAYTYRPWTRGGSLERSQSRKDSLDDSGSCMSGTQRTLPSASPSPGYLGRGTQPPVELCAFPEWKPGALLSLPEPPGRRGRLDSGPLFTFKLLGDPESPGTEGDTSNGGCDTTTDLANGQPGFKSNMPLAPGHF
T1 sequence (P23944 whole entry): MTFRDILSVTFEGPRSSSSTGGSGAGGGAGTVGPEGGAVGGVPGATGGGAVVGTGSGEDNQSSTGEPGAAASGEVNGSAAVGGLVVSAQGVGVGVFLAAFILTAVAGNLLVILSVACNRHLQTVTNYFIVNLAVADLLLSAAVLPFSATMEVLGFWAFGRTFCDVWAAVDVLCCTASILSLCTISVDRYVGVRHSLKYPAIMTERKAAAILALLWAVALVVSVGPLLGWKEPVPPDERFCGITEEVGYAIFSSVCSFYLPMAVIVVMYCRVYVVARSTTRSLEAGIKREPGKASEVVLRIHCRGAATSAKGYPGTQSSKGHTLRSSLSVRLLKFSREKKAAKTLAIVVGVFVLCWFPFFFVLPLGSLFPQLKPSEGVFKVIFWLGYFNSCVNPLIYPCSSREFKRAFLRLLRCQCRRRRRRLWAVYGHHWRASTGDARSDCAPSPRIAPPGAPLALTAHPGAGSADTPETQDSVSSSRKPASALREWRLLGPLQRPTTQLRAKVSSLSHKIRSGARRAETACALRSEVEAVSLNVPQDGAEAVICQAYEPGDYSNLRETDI
T1 sequence (P43140 whole entry): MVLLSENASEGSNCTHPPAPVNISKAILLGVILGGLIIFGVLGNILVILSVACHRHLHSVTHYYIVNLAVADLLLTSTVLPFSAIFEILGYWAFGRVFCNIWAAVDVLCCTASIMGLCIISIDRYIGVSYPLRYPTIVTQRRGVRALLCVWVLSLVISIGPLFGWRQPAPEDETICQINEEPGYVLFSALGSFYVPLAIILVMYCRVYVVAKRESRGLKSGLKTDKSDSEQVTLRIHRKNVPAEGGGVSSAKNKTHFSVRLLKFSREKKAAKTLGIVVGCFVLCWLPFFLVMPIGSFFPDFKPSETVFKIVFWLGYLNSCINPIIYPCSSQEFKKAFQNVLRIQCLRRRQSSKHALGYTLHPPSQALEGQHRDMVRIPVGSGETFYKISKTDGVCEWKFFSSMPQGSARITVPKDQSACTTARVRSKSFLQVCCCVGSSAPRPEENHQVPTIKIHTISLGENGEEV
The experiment in a line: Displacement of [3H]prazosin from alpha1 adrenergic receptor in rat cortical membranes. The format is cell membranes, Membrane.

The target of data set [8] is Cytochrome P450 3A4 (Homo sapiens, UniProt P08684). The experiment in a line: Inhibition of CYP3A4 in human liver microsomes. The format is ADME, Microsome.
Cytochrome P450 3A4, sequence (P08684 whole entry): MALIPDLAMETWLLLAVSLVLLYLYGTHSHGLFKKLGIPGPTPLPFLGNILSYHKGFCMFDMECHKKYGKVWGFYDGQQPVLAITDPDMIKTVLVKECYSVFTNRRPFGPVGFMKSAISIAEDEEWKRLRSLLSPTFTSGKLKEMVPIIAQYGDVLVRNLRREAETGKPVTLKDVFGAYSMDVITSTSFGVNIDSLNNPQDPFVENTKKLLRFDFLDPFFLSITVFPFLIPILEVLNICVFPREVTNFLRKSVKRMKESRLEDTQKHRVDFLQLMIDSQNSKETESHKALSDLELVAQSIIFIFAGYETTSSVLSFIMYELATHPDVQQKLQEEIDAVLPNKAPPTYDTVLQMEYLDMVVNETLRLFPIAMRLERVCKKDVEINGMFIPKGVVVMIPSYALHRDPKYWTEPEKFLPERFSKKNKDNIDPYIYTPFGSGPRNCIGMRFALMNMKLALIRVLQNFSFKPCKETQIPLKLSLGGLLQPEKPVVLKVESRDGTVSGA
Data set [9] has as its target Cytochrome P450 2C9 (Homo sapiens, UniProt P11712). The experiment in a line: Inhibition of CYP2C9 in human liver microsomes. Format: ADME, Microsome.
The nature of data set [10]: Tmax in rat at 3 mg/kg, po. Format: ADME, organism-based. Details: dose 3 mg/kg, route oral. The following applies: in vivo.
Data set [11] has as its target T2, Cytochrome P450 2A6 (Homo sapiens, UniProt P11509).
T2 sequence (P11509 whole entry): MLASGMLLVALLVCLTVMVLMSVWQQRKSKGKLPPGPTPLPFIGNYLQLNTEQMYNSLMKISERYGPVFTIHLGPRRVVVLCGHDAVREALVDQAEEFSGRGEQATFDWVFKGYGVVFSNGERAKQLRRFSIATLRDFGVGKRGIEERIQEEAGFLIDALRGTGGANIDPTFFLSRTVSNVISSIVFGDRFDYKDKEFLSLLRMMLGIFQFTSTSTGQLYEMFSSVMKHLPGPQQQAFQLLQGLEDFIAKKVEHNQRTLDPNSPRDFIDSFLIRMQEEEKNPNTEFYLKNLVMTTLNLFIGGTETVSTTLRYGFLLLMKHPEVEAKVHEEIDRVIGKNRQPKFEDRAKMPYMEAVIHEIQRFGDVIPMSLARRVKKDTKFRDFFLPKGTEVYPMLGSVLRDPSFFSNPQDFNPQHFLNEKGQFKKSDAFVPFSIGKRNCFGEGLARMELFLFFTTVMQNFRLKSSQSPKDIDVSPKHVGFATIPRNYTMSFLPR
The data set is described as follows: Inhibition of CYP2A6 in human liver microsomes upto 100 uM. Format: ADME, Microsome.

The nature of data set [12]: Cmax in rat at 3 mg/kg, po. The format is ADME, organism-based. Details: dose 3 mg/kg, route oral. The following applies: in vivo.
Data set [13] in a line: Oral bioavailability in rat at 3 mg/kg. The following applies: in vivo. Format: ADME, organism-based.
Data set [14] concerns Rattus norvegicus. The experiment in a line: AUC in rat at 1 mg/kg, iv. The format is ADME, organism-based, Plasma. Details: dose 1 mg/kg, route intravenous. The conditions noted are these: in vivo.
Data set [15] is described as follows: Tmax in rat at 10 mg/kg, po. The format is ADME, organism-based. More on the design: dose 10 mg/kg, route oral. The conditions noted are these: in vivo.
Data set [16] is described as follows: Elimination half life in rat at 10 mg/kg, po. Format: ADME, organism-based. Details: dose 10 mg/kg, route oral. The following applies: in vivo, read-out: beta t1/2 (converted).
For data set [17], the target named is Cytochrome P450 2C19 (Homo sapiens, UniProt P33261). The data set is described as follows: Inhibition of CYP2C19 in human liver microsomes. The format is ADME, Microsome.
Cytochrome P450 2C19, sequence (P33261 whole entry): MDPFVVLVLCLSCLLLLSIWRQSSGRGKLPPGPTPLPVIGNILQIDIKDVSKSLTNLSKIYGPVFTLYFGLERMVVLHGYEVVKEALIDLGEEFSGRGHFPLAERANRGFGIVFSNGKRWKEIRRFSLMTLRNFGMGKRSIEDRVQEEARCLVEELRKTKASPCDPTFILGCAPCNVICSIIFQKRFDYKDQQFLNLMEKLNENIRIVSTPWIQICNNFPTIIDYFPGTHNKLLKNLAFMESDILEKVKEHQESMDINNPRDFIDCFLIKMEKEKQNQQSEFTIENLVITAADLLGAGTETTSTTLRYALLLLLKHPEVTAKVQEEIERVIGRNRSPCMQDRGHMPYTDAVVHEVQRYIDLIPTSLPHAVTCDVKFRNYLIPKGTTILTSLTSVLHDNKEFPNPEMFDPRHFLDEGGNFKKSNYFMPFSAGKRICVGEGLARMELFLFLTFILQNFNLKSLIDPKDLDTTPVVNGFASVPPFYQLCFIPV
Data set [18] has as its target D(2) dopamine receptor (Homo sapiens, UniProt P14416). The experiment in a line: Displacement of [3H]spiperone from human dopamine D2 receptor expressed in CHO cells. The format is cell-based.
Data set [19] has as its system Rattus norvegicus. The experiment in a line: Antidepressant like activity in sc dosed rat resident-intruder model assessed as effect on total behavior score administered 30 mins prior to test. Format: functional. The conditions noted are these: read-out: ID50 (the source's name).

Cytochrome P450 2C9, sequence (P11712 whole entry): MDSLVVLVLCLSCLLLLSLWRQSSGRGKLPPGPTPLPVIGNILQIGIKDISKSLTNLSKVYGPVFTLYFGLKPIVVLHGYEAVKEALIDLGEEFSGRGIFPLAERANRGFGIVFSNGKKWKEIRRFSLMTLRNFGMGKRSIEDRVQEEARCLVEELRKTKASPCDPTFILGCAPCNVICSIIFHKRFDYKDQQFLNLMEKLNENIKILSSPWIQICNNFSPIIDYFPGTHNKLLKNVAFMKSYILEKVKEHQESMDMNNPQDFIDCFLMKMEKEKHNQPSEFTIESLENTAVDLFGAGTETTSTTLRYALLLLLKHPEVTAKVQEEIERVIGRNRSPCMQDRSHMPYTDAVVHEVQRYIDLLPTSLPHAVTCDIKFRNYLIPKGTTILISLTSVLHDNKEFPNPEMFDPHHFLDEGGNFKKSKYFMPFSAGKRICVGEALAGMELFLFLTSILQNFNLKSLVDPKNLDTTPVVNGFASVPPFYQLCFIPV
D(2) dopamine receptor, sequence (P14416 whole entry): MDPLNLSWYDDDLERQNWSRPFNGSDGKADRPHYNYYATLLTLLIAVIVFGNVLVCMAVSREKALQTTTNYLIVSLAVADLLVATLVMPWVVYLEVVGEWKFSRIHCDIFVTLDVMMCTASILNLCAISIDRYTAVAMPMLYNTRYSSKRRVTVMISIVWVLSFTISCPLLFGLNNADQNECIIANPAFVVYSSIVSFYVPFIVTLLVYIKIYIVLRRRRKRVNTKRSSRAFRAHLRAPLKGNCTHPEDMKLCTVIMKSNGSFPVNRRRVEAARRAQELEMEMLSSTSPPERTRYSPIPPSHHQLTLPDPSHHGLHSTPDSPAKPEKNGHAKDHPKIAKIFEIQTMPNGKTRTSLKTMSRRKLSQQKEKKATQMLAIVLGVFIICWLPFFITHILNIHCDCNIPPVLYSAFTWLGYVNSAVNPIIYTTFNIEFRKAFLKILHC

Take `Cc1ccc2c3c(ccc2n1)OC[C@H](CN1CCN(c2ccc4cc(C#N)ccc4n2)CC1)O3`: the half-life in [1] is 4 h; in data set [2], 3.8 h; in data set [16] it was 3.8 h. Also, the bioavailability in [3] was determined as 36%; in data set [13], 61%. The inhibition constant Ki in data set [4] is 0.0138 µM; in data set [7], 1.11 µM; in [18], 1.31 µM. The Activity in data set [5] is 71%; in [6], “Dose-dependent effect”. The values for the IC50 in data set [8], in data set [9] and in data set [17] were 10 µM, 358 µM and 98 µM, respectively. The Tmax is 1.3 h in data set [10] and 1 h in data set [15]. Also, the “inhibition (INH)” value in data set [11] is recorded as “Not Active”. In addition, in data set [12], the Cmax came to 0.456 µg/mL. This molecule also yielded an AUC in data set [14] of 1.268 µg·h/mL. Further, the ED50 in data set [19] is more than 30 mg/kg.

The record behind these values is ChEMBL document CHEMBL1151947, “Synthesis, potency, and in vivo evaluation of 2-piperazin-1-ylquinoline analogues as dual serotonin reuptake inhibitors and serotonin 5-HT1A receptor antagonists” (J Med Chem, 2009).
